Data published in patent US11857521B1, “Anti-mycobacterial drugs” (priority 2022, dated 2024).
Where two headings read alike, the source gives them in different places.

Experiments:
M. smegmatis [1] = assay: Checkerboard assay with OCG; assay type: cell-based, Mycobacterium smegmatis; conditions: for Interaction / FICI (Fractional Inhibitory Concentration Index): drug in combination with OCG; for FICI (Fractional Inhibitory Concentration Index): range of three experiments
[2] = test system: M. smegmatis membrane potential (Δψ); conditions: OCG at 2×MIC; CCCP at various concentrations
Description: Bacterial cells were grown to late log-phase in 7H9. Cells were centrifuged at 3000×g for 5 min at 25° C., washed twice and resuspended in 10 mL of 5 mM HEPES buffer, pH 7.2 supplemented with 1 mM glucose. OD600 of the cells was then adjusted to 0.4. The cell suspension was treated with 1 μM of the potentiometric probe 3,3′-Dipropylthiadicarbocyanine Iodide (DiSC3(5)) was added. It was incubated at 37° C., and monitored the quenching of DiSC3(5) dye in the presence of M. smegmatis cells for 30 min. In a black-sided 96-well microtiter plate, polymer solution was added to the plate and serially diluted two-fold in 50 mM HEPES buffer supplemented with 1 mM glucose and 2% DMSO for a final volume of 50 μL per well and 1% DMSO. After 30 min of quenching DiSC3(5), 50 μL of the bacterial suspension with dye was added to the polymer-containing wells. […] Fluorescence was recorded 590/635 nm (excitation/emission) for 1 h every 10 min on a BioTek Synergy H1 plate reader. Assay was performed at least three independent experiments.

M. smegmatis mc^2155 [3] = conditions: 2×MIC
Description: M. smegmatis mc^2155 was culture as previously described in the MIC assay. […] After treatment period, 500 μL of the solution was centrifuge at 3000×g for 30 s at 25° C. The pellet was resuspended in 1 mL glutaraldehyde/cacodylate fixative solution and stored at −20° C. before imaging. Images were analyzed for significant morphological changes. The frequency of membrane ruffling, membrane delamination, cytosolic leakage, and cells that appeared hollowed (i.e., cell death) were counted and divided by the total cell number per frame. The percent of the observed cell envelope stress indicators was used for statistical analysis.

M. smegmatis mc^2155 [4] = conditions: 4×MIC for 1 h
Description: Similarly, outer membrane permeability assay using 10 μM N-Phenyl-2-naphthylamine in 4% acetone was used as a non-fluorescent dye that upon hydrophobic interaction, it emits fluorescence signal. Cells were grown to mid-log phase (OD600=0.5), centrifuged at 4000×g for 2 min at 25° C., washed and resuspended in 5 mM HEPES buffer, pH 7.2. Compounds were made in HEPES buffer and 50 μL was added to an optical bottom black-sided 96-well microtiter plate. Then 50 μL of 40 μM NPN solution and 100 μL of cell suspension were added to the plate. Fluorescence was measured at 350/400 nm (excitation/emission) for 1 h. Experiments were performed in triplicates.

E. coli ATCC 8739 = assay type: cell-based, Escherichia coli
S. aureus ATCC 6538 = assay type: cell-based, Staphylococcus aureus
MSMEG_2694 = conditions: 2×MIC for an hour, sigA housekeeping gene
Description: (§1) The bacterial cell suspension centrifuged at 40000×g for 5 min at 25° C. and resuspended in 1 mL guanidine thiocyanate (GTC) buffer. The cells were spun down at 12000×g for 5 min and resuspended in 750 μL of TRIzol reagent (Invitrogen), and added to 0.5 mL of 0.1 mm zirconia/silica beads. Cells were lysed in a bead beater for two 1 min intervals with incubation on ice between intervals. Afterwards, 2004 of chloroform was added to the tube, mixed, and spun at 12000×g for 15 min. The aqueous layer was carefully removed to 500 μL of RNase-free ethanol and mixed. From the solution, 700 μL were loaded onto Rnease Kit (Qiagen) miniprep columns and spun at 10000×g for 1 min. The remainder of the solution was then loaded and spun. The column was washed with 700 μL of RW1 buffer and discarded. The column was then washed twice with 500 μL RPE buffer and spun as previously described. The column was transferred to a new tube to elute the sample using 30 μL of RNase-free water and spun.
(§2) To ensure there is DNA-free, the sample was treated using TURBO DNA-free kit (Ambion) where a 1 μL of DNase and 3.5 μL of 10×DNase Buffer were added to the 30 μL of RNA and incubated for 1 h at 37° C. […] The concentration of RNA was determined through a ThermoFisher multichannel NanoDrop and adjusted to 50 ng/mL for cDNA reaction. […]

MSMEG_5072 = conditions: 2×MIC for an hour, sigA housekeeping gene
Description: as §1, §2

[5] = 2 mM OCG in 100 mM NaCl, titrated with 25 mM NaOH
Description: The pH was measured using a Mettler Toledo in Lab Ultra-Micro pH Probe. The acidified solution was titrated at 5 μL increments of 25 mM NaOH. The pH readings were recorded from pH ˜2.5-11. After plotting ΔpH/Δvolume of NaOH, the two points where the largest change in pH occurred were found. The median volume between the two maxima was identified as the point where pH=pKa. Solution of 100 mM NaCl served as control. Experiment was performed in triplicates.

M. smegmatis [6] = conditions: after 2 h of treatment
M. smegmatis mc^2155 [7] = assay type: cell-based, Mycobacterium smegmatis
[8] = Mycolicibacterium smegmatis, single agent in checkerboard assay, M. smegmatis, read-out: MIC

## COc1nc2ccc(Br)cc2cc1[C@@H](c1ccccc1)[C@@](O)(CCN(C)C)c1cccc2ccccc12 [Bedaquiline (BDQ), bedaquiline]
M. smegmatis [1]; Mycolicibacterium smegmatis
  MIC: 0.12 µg/mL
M. smegmatis [1]; M. smegmatis
  Interaction: Synergy
  FICI (Fractional Inhibitory Concentration Index): 0.38-0.5

## CC(C)/N=c1\cc2n(-c3ccc(Cl)cc3)c3ccccc3nc-2cc1Nc1ccc(Cl)cc1 [Clofazimine (CLZ), clofazimine]
M. smegmatis [1]; [8]
  MIC: 2.5 µg/mL
M. smegmatis [1]; M. smegmatis
  Interaction: Additive
  FICI (Fractional Inhibitory Concentration Index): 0.5-0.75
M. smegmatis [1]; M. smegmatis, listed as CLZ
  FICI (Fractional Inhibitory Concentration Index): 0.50-0.75

## CO[C@H]1/C=C/O[C@@]2(C)Oc3c(C)c(O)c4c(O)c(c(/C=N/N5CCN(C)CC5)c(O)c4c3C2=O)NC(=O)/C(C)=C\C=C\[C@H](C)[C@H](O)[C@@H](C)[C@@H](O)[C@@H](C)[C@H](OC(C)=O)[C@@H]1C [Rifampin (RIF), rifampin]
M. smegmatis [1]; [8]
  MIC: 8 µg/mL
M. smegmatis [1]; M. smegmatis
  Interaction: Additive
  FICI (Fractional Inhibitory Concentration Index): 1-2

## cyanide m-chlorophenyl hydrazone [CCCP, reference compound]
[2]
  membrane potential (Δψ), DiSC3(5) fluorescence: did not exhibit concentration-dependent potential changes

## oligo(carbamoylated guanidine) [OCG]
M. smegmatis mc^2155 [3]; starting from 1 h
  TEM: membrane ruffling and delamination: signs of membrane stress including ruffling and delamination were observed
M. smegmatis mc^2155 [3]; up to 24 h incubation
  TEM: frequency of cytosolic leakage, treated vs non-treated: no significant difference
B. cepacia ATCC 2516
  MIC90 Bc: >200 µg/mL
M. smegmatis mc^2155 [4]
  NPN fluorescence (membrane damage): no fluorescence intensity increase
P. aureginosa ATCC 15442
  MIC90 Pa: >200 µg/mL
M. smegmatis [1]; single agent in checkerboard assay, M. smegmatis
  MIC: 6 µM
E. coli ATCC 8739
  MIC90 Ec: >200 µg/mL
S. aureus ATCC 6538
  MIC90 Sa: 50 µg/mL
C. albicans ATCC 10231
  MIC90 Ca: >200 µg/mL
MSMEG_2694
  increased expression level of MSMEG_2694 compared to control Msm: 50 fold
M. bovis BCG
  MIC90 BCG: 25 µg/mL
Mab 3690 S
  MIC90 Mab S: 65 µg/mL
MSMEG_5072
  increased expression level of MSMEG_5072 compared to control Msm: 10 fold
[5]
  pKa: ~5
Mab 3690 R
  MIC90 Mab R: 188 µg/mL
  change of MIC, Mab R morphotype compared with S: ˜three-fold increase
M. smegmatis [6]
  intracellular ATP levels (RLUs/CFUs): depletion of ATP levels
M. smegmatis mc^2155 [7]
  change of MIC, Msm cultured in LB compared with 7H9 medium: increased ˜four times
M. smegmatis mc^2155 [7]; M. smegmatis mc 155, Table 2
  MIC90 Msm: 6 µg/mL
M. smegmatis mc^2155 [7]; Msm mc^2 155 grown in 7H9 medium
  MIC90 Msm: 6 µg/mL
M. smegmatis mc^2155 [7]; Msm mc^2 155 grown in LB
  MIC90 Msm: 25 to 50 µg/mL
